Reference: PubChem BioAssay AID2060905 (Molecular Pharmacology Branch, DTP, NCI, 2025)

Tested on: 282377-053-R-J1-PDC complex spheroid viability
Assay: Anticancer human tumor 282377-053-R-J1-PDC patient-derived colon adenocarcinoma cell line growth inhibition [RAS]
Details: for IC50: curve of first compound; for viability, T/C: stronger effect = lower value
Outline: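 Agents were tested in combination matrices in half-log decrements from a top concentration at or near clinical Cmax (10 microM if undetermined). Targets were multi-cell spheroids of tumour lines plus HUVEC and MSC stromal cells.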

[1] = second compound 0.0316 µM, first compound 0.0316 µM
[2] = second compound 0.0316 µM, first compound 0.1 µM
[3] = second compound 0.0316 µM, first compound 0.316 µM
[4] = second compound 0.0316 µM, first compound 1 µM
[5] = second compound 0.0316 µM, first compound 3.16 µM
[6] = second compound 0.0316 µM, first compound 10 µM
[7] = second compound 0.1 µM, first compound 0.0316 µM
[8] = second compound 0.1 µM, first compound 0.1 µM
[9] = second compound 0.1 µM, first compound 0.316 µM
[10] = second compound 0.1 µM, first compound 1 µM
[11] = second compound 0.1 µM, first compound 3.16 µM
[12] = second compound 0.1 µM, first compound 10 µM
[13] = second compound 0.316 µM, first compound 0.0316 µM
[14] = second compound 0.316 µM, first compound 0.1 µM
[15] = second compound 0.316 µM, first compound 0.316 µM
[16] = second compound 0.316 µM, first compound 1 µM
[17] = second compound 0.316 µM, first compound 3.16 µM
[18] = second compound 0.316 µM, first compound 10 µM
[19] = second compound 1 µM, first compound 0.0316 µM
[20] = second compound 1 µM, first compound 0.1 µM
[21] = second compound 1 µM, first compound 0.316 µM
[22] = second compound 1 µM, first compound 1 µM
[23] = second compound 1 µM, first compound 3.16 µM
[24] = second compound 1 µM, first compound 10 µM
[25] = second compound 3.16 µM, first compound 0.0316 µM
[26] = second compound 3.16 µM, first compound 0.1 µM
[27] = second compound 3.16 µM, first compound 0.316 µM
[28] = second compound 3.16 µM, first compound 1 µM
[29] = second compound 3.16 µM, first compound 3.16 µM
[30] = second compound 3.16 µM, first compound 10 µM
[31] = second compound 10 µM, first compound 0.0316 µM
[32] = second compound 10 µM, first compound 0.1 µM
[33] = second compound 10 µM, first compound 0.316 µM
[34] = second compound 10 µM, first compound 1 µM
[35] = second compound 10 µM, first compound 3.16 µM
[36] = second compound 10 µM, first compound 10 µM
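Note: spheroids exposed to agents for seven days before readout.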
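Throughout, for viability, T/C: luminescence viability as percent of DMSO vehicle control wells.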

CCC(CC)c1cc(NC2CCC(N)C2)n2nccc2n1 (centres undefined) + C#Cc1c(F)ccc2cc(O)cc(-c3ncc4c(N5CC6CCC(C5)N6)nc(OCC56CCCN5CC(F)C6)nc4c3F)c12
IC50 (second compound 0.0316 µM): 1.97 µM | IC50 (second compound 0.1 µM): 2.02 µM | IC50 (second compound 0.316 µM): 1.86 µM | IC50 (second compound 1 µM): 1.7 µM | IC50 (second compound 3.16 µM): 1.91 µM | IC50 (second compound 10 µM): 1.76 µM | viability, T/C [1]: 113% | viability, T/C [2]: 120% | viability, T/C [3]: 89.4% | viability, T/C [4]: 111% | viability, T/C [5]: 9.2% | viability, T/C [6]: 2.06% | viability, T/C [7]: 113% | viability, T/C [8]: 123% | viability, T/C [9]: 94.9% | viability, T/C [10]: 118% | viability, T/C [11]: 10.2% | viability, T/C [12]: 2.09% | viability, T/C [13]: 107% | viability, T/C [14]: 102% | viability, T/C [15]: 81.3% | viability, T/C [16]: 96.9% | viability, T/C [17]: 9.63% | viability, T/C [18]: 2.11% | viability, T/C [19]: 103% | viability, T/C [20]: 95.4% | viability, T/C [21]: 86.8% | viability, T/C [22]: 84.6% | viability, T/C [23]: 9.29% | viability, T/C [24]: 2.23% | viability, T/C [25]: 99.5% | viability, T/C [26]: 112% | viability, T/C [27]: 104% | viability, T/C [28]: 100% | viability, T/C [29]: 10.8% | viability, T/C [30]: 2.69% | viability, T/C [31]: 101% | viability, T/C [32]: 95.9% | viability, T/C [33]: 96.3% | viability, T/C [34]: 89.4% | viability, T/C [35]: 9.18% | viability, T/C [36]: 3.74%

C[C@@H](NC(=O)c1ncnc(N)c1Cl)c1ncc(C(=O)Nc2cc(C(F)(F)F)c(Cl)cn2)s1 + C#Cc1c(F)ccc2cc(O)cc(-c3ncc4c(N5CC6CCC(C5)N6)nc(OCC56CCCN5CC(F)C6)nc4c3F)c12
IC50 (second compound 0.0316 µM): > 10 µM | IC50 (second compound 0.1 µM): > 10 µM | IC50 (second compound 0.316 µM): > 10 µM | IC50 (second compound 1 µM): > 10 µM | IC50 (second compound 3.16 µM): > 10 µM | IC50 (second compound 10 µM): > 10 µM | viability, T/C [1]: 121% | viability, T/C [2]: 99.5% | viability, T/C [3]: 89.2% | viability, T/C [4]: 86.5% | viability, T/C [5]: 87.1% | viability, T/C [6]: 78.5% | viability, T/C [7]: 103% | viability, T/C [8]: 111% | viability, T/C [9]: 88.7% | viability, T/C [10]: 76.7% | viability, T/C [11]: 79.6% | viability, T/C [12]: 93.5% | viability, T/C [13]: 105% | viability, T/C [14]: 112% | viability, T/C [15]: 84.8% | viability, T/C [16]: 91.2% | viability, T/C [17]: 75.7% | viability, T/C [18]: 71.7% | viability, T/C [19]: 104% | viability, T/C [20]: 86.6% | viability, T/C [21]: 94.1% | viability, T/C [22]: 67% | viability, T/C [23]: 90.4% | viability, T/C [24]: 77% | viability, T/C [25]: 79.9% | viability, T/C [26]: 101% | viability, T/C [27]: 104% | viability, T/C [28]: 77.5% | viability, T/C [29]: 80.9% | viability, T/C [30]: 80.3% | viability, T/C [31]: 91.3% | viability, T/C [32]: 102% | viability, T/C [33]: 91.9% | viability, T/C [34]: 85% | viability, T/C [35]: 90.8% | viability, T/C [36]: 86.9%
